Series [1] in a line: HPLC study to detect any binding interaction of tranexamic acid with hyaluronic acid polymer (ERACLEA product). It counts as physicochemical.
Procedure: First a skin care product from ERACLEA® Skin Care containing 1% (w/v) hyaluronic acid polymer and preservatives was tested. […] The analysis was carried out with fresh sample preparations being mixed and immediately injected into the HPLC system for analysis as well as sample preparations that were mixed and allowed to stand for a 20 minute time period prior to injection.
(§1) Similar to the above-mentioned study, the JUVEDERM® analysis was carried out with fresh sample preparations being immediately injected for analysis as well as sample preparations that were allowed to stand for a 20 minute time period prior to injection.
The sample preparation was prepared as follows: 10 mg of hyaluronic acid polymer (Source: ERACLEA®, pure hydration) was weighed in 2.5 mL of auto sampler vial and diluted to 1000 μt volume by adding an aqueous solution of 60:40 ratio, by volume, distilled water/acetonitrile and used as a standard stock solution.
The HPLC was conducted with a flow rate of 1 mL/min, a sample concentration of 10 mg/mL, and an injection volume of 10 μt, a wave length of 205 nm and a solvent system of 40:60 ratio, by volume, acetonitrile/distilled water.
For series [2] the following is noted: oral administration; cited from earlier work.
A short description of series [3]: HPLC study of interaction of tranexamic acid with hyaluronic acid dermal filler (JUVEDERM). It counts as physicochemical. The conditions noted are these: freshly prepared 3% (w/v) tranexamic acid in filler; injected immediately vs after standing 20 min.
Procedure: as §1
The sample preparation was prepared as follows: 13 mg of filler (Source: JUVEDERM® Vollere XC) was weighed in a 2.5 mL vial and diluted to 1000 μt volume by adding an aqueous solution of 60:40 ratio, by volume, distilled water/acetonitrile.
Series [4] deals with patients undergoing dermal filler procedures. Description: Bruising study: tranexamic acid solutions applied before and after dermal filler procedures, 48-hour observation. The series is classed as in vivo, human.
For series [5], the system named is patients receiving hyaluronic acid dermal filler. Description: Non-surgical clinical use: tranexamic acid solution before and after injection of hyaluronic acid dermal filler, 318 patients. The conditions noted are these: 3% (w/v) tranexamic acid solution before and after filler injection. The series is classed as in vivo, human. The text has this: Three patients of the 318 reported instances of bruising or swelling.

Where [6] appears, read: 20% (w/v) tranexamic acid solution vs without.
The mark [7] stands for this setting: 20% (w/v) tranexamic acid solution, when bruising occurred.

Each structure is given as a SMILES string.

For `NC[C@H]1CC[C@H](C(=O)O)CC1` [tranexamic acid], in series [1] (3% (w/v) tranexamic acid in solution containing 1% (w/v) hyaluronic acid polymer, mixed several weeks prior to HPLC), the “interaction between tranexamic acid and hyaluronic acid polymer when mixed in solution” value is on record as “no interaction”. The “interaction between tranexamic acid and hyaluronic acid polymer” value in series [1] (freshly prepared 3% (w/v) tranexamic acid in hyaluronic acid polymer, injected immediately vs after standing 20 min) is given as “no interaction”. Also, in series [1] (left in contact for several weeks (0.5% and 3% (w/v) tranexamic acid)), the “interaction between tranexamic acid and the hyaluronic acid in the ERACLEA product” value is given as “no interaction”. Further, the “fraction of the TA ingested that does not enter the blood” value in series [2] is given as “about half”. Also, the “interaction between tranexamic acid and JUVEDERM filler” value in series [3] was “no interaction”. In addition, in series [4] (20% (w/v) tranexamic acid solution), the “mild to no bruising combined, patients” value amounted to 82%. Moreover, the “more patients experienced no bruising vs filler labeling” value in series [4] (20% (w/v) tranexamic acid solution vs labeling of JUVEDERM VOLLURE XC and VOLBELLA XC) was “about 28%”. In series [4] (20% (w/v) tranexamic acid solution vs other series, 48-hour observation), the “improvement in bruising incidence” value is recorded as “three-fold”. Further, in series [4] (setting [6]), the “improvement in mild bruising” value is on record as 80%, the “improvement in mild to no bruising combined” value came to 58% and the “improvement in severe bruising” value worked out at 100%. In addition, in series [4] (20% (w/v) tranexamic acid solution, 48-hour observation), the “patients experienced no bruising” value is given as “Approximately 45%”. Also, in series [4] (setting [7]), the patients bruised severely entry is recorded as “no patients” and the “patients only bruised mildly” value amounted to 67%. Moreover, the “patients experienced no bruising” value in series [4] (other series of patients (3%, 5%, 10% (w/v), and 3% plus home use for two days), 48-hour observation) is recorded as “about 15%”. Also, in series [5], the “patients reported instances of bruising or swelling (count)” value was “Three”. Also, the “patients reported instances of bruising and swelling” value in series [5] (318 patients, about 1 year) is “Less than 1%”.
